Laboratory results reported in patent US8802597B2, “Herbicidal pyrimidines” (E I du Pont de Nemours and Company, priority 2003, dated 2014).

How the values were obtained:
Experiment in all cases: Test D pre/postemergence
Assay type in all cases: in vivo
[1] = system: pigweed (Amaranthus retroflexus); conditions: scale 0 to 100 (100 = complete control)
Description: (§1) Seeds of plant species selected from catchweed bedstraw (galium; Galium aparine), common chickweed (Stellaria media), kochia (Kochia scoparia), lambsquarters (Chenopodium album), pigweed (Amaranthus retroflexus), Russian thistle (Salsola kali), wild buckwheat (Polygonum convolvulus), wild mustard (Sinapis arvensis), winter barley (Hordeum vulgare), and wheat (Triticum aestivum) were planted and treated preemergence with test chemicals formulated in a non-phytotoxic solvent mixture which included a surfactant.
(§2) At the same time, plants selected from these crop and weed species were treated with postemergence applications of some of the test chemicals formulated in the same manner. Plants ranged in height from 2 to 18 cm (1- to 4-leaf stage) for postemergence treatments. Treated plants and controls were maintained in a controlled growth environment for 15 to 25 days after which time all species were compared to controls and visually evaluated. Plant response ratings, summarized in Table D, are based on a scale of 0 to 100 where 0 is no effect and 100 is complete control. A dash (-) response means no test result.

[2] = system: catchweed bedstraw (galium; Galium aparine); conditions: scale 0 to 100 (100 = complete control)
Description: as §1, §2

[3] = system: wild mustard (Sinapis arvensis); conditions: scale 0 to 100 (100 = complete control)
Description: as §1, §2

[4] = system: common chickweed (Stellaria media); conditions: Preemergence, scale 0 to 100 (100 = complete control)
Description: as §1, §2

[5] = system: lambsquarters (Chenopodium album); conditions: scale 0 to 100 (100 = complete control)
Description: as §1, §2

[6] = system: wild buckwheat (Polygonum convolvulus); conditions: scale 0 to 100 (100 = complete control)
Description: as §1, §2

[7] = system: kochia (Kochia scoparia); conditions: scale 0 to 100 (100 = complete control)
Description: as §1, §2

[8] = system: Russian thistle (Salsola kali); conditions: scale 0 to 100 (100 = complete control)
Description: as §1, §2

[9] = system: wheat (Triticum aestivum); conditions: scale 0 to 100 (100 = complete control)
Description: as §1, §2

SMILES: COC(=O)c1nc(-c2ccc(Cl)cc2)nc(N)c1Cl [Compound 58, methyl 6-amino-5-chloro-2-(4-chlorophenyl)-4-pyrimidinecarboxylate]
- Plant response rating, Pigweed ([1]; Postemergence, 62 g ai/ha): 80
- Plant response rating, Pigweed ([1]; Postemergence, 125 g ai/ha): 100
- Plant response rating, Pigweed ([1]; Postemergence, 250 g ai/ha): 100
- Plant response rating, Pigweed ([1]; Postemergence, 500 g ai/ha): 100
- Plant response rating, Pigweed ([1]; Preemergence, 62 g ai/ha): 70
- Plant response rating, Pigweed ([1]; Preemergence, 125 g ai/ha): 100
- Plant response rating, Pigweed ([1]; Preemergence, 250 g ai/ha): 100
- Plant response rating, Pigweed ([1]; Preemergence, 500 g ai/ha): 100
- Plant response rating, Galium ([2]; Postemergence, 62 g ai/ha): 100
- Plant response rating, Galium ([2]; Postemergence, 125 g ai/ha): 100
- Plant response rating, Galium ([2]; Postemergence, 250 g ai/ha): 100
- Plant response rating, Galium ([2]; Postemergence, 500 g ai/ha): 100
- Plant response rating, Galium ([2]; Preemergence, 62 g ai/ha): 100
- Plant response rating, Galium ([2]; Preemergence, 125 g ai/ha): 100
- Plant response rating, Galium ([2]; Preemergence, 250 g ai/ha): 100
- Plant response rating, Galium ([2]; Preemergence, 500 g ai/ha): 100
- Plant response rating, Mustard, Wild ([3]; Postemergence, 62 g ai/ha): 100
- Plant response rating, Mustard, Wild ([3]; Postemergence, 125 g ai/ha): 100
- Plant response rating, Mustard, Wild ([3]; Postemergence, 250 g ai/ha): 100
- Plant response rating, Mustard, Wild ([3]; Postemergence, 500 g ai/ha): 100
- Plant response rating, Mustard, Wild ([3]; Preemergence, 62 g ai/ha): 65
- Plant response rating, Mustard, Wild ([3]; Preemergence, 125 g ai/ha): 100
- Plant response rating, Mustard, Wild ([3]; Preemergence, 250 g ai/ha): 100
- Plant response rating, Mustard, Wild ([3]; Preemergence, 500 g ai/ha): 100
- Plant response rating, Chickweed ([4]; 62 g ai/ha): 60
- Plant response rating, Chickweed ([4]; 250 g ai/ha): 75
- Plant response rating, Chickweed ([4]; 500 g ai/ha): 100
- Plant response rating, Lambsquarters ([5]; Postemergence, 62 g ai/ha): 80
- Plant response rating, Lambsquarters ([5]; Postemergence, 125 g ai/ha): 85
- Plant response rating, Lambsquarters ([5]; Postemergence, 250 g ai/ha): 100
- Plant response rating, Lambsquarters ([5]; Postemergence, 500 g ai/ha): 100
- Plant response rating, Lambsquarters ([5]; Preemergence, 62 g ai/ha): 60
- Plant response rating, Lambsquarters ([5]; Preemergence, 125 g ai/ha): 100
- Plant response rating, Lambsquarters ([5]; Preemergence, 250 g ai/ha): 100
- Plant response rating, Lambsquarters ([5]; Preemergence, 500 g ai/ha): 100
- Plant response rating, Buckwheat, Wild ([6]; Postemergence, 62 g ai/ha): 65
- Plant response rating, Buckwheat, Wild ([6]; Postemergence, 125 g ai/ha): 90
- Plant response rating, Buckwheat, Wild ([6]; Postemergence, 250 g ai/ha): 100
- Plant response rating, Buckwheat, Wild ([6]; Postemergence, 500 g ai/ha): 100
- Plant response rating, Buckwheat, Wild ([6]; Preemergence, 62 g ai/ha): 40
- Plant response rating, Buckwheat, Wild ([6]; Preemergence, 125 g ai/ha): 80
- Plant response rating, Buckwheat, Wild ([6]; Preemergence, 250 g ai/ha): 100
- Plant response rating, Buckwheat, Wild ([6]; Preemergence, 500 g ai/ha): 100
- Plant response rating, Kochia ([7]; Postemergence, 62 g ai/ha): 70
- Plant response rating, Kochia ([7]; Postemergence, 125 g ai/ha): 100
- Plant response rating, Kochia ([7]; Postemergence, 250 g ai/ha): 100
- Plant response rating, Kochia ([7]; Postemergence, 500 g ai/ha): 100
- Plant response rating, Kochia ([7]; Preemergence, 62 g ai/ha): 35
- Plant response rating, Kochia ([7]; Preemergence, 125 g ai/ha): 95
- Plant response rating, Kochia ([7]; Preemergence, 250 g ai/ha): 100
- Plant response rating, Kochia ([7]; Preemergence, 500 g ai/ha): 100
- Plant response rating, Russian Thistle ([8]; Postemergence, 62 g ai/ha): 70
- Plant response rating, Russian Thistle ([8]; Postemergence, 125 g ai/ha): 70
- Plant response rating, Russian Thistle ([8]; Postemergence, 250 g ai/ha): 70
- Plant response rating, Russian Thistle ([8]; Postemergence, 500 g ai/ha): 80
- Plant response rating, Russian Thistle ([8]; Preemergence, 62 g ai/ha): 40
- Plant response rating, Russian Thistle ([8]; Preemergence, 125 g ai/ha): 65
- Plant response rating, Russian Thistle ([8]; Preemergence, 250 g ai/ha): 70
- Plant response rating, Russian Thistle ([8]; Preemergence, 500 g ai/ha): 85
- Plant response rating, Wheat ([9]; Postemergence, 62 g ai/ha): 55
- Plant response rating, Wheat ([9]; Postemergence, 125 g ai/ha): 60
- Plant response rating, Wheat ([9]; Postemergence, 250 g ai/ha): 70
- Plant response rating, Wheat ([9]; Postemergence, 500 g ai/ha): 85
- Plant response rating, Wheat ([9]; Preemergence, 62 g ai/ha): 25
- Plant response rating, Wheat ([9]; Preemergence, 125 g ai/ha): 50
- Plant response rating, Wheat ([9]; Preemergence, 250 g ai/ha): 60
- Plant response rating, Wheat ([9]; Preemergence, 500 g ai/ha): 70
